Values joined by “and” are separate entries in the source; they are usually repeats but may differ in a detail not shown here. Identical values can stand only once. Inconclusive results and toxic doses are left out.
Test system: B6C3F1 mice, intracerebral ependymoblastoma, median survival T/C
Assay: NCI In Vivo Anticancer Drug Screen. Data for tumor model Ependymoblastoma (intracerebral) in B6C3F1 mice
Details: endpoint: median survival time, higher = longer survival
Procedure: The antitumor activity of compounds was measured in mice bearing transplantable tumors. Survival or tumor size were measured and the results are expressed as the measurement made in the treated group (T) divided by the measurement made in the vehicle treated control group (C). The tumor model used in this assay is Ependymoblastoma (intracerebral) in B6C3F1 mice

[1] = dose: 25.0 mg/kg/injection, schedule: Q01DX005 (ip), vehicle: Klucel (hydroxypropylcellulose) (HPC)
[2] = dose: 50.0 mg/kg/injection, schedule: Q01DX005 (ip), vehicle: Klucel (hydroxypropylcellulose) (HPC)
[3] = dose: 100.0 mg/kg/injection, schedule: Q01DX005 (ip), vehicle: Klucel (hydroxypropylcellulose) (HPC)

O=NN(CCCl)C(=O)NCCCl
T/C (dose: 0.5 mg/kg/injection, schedule: Q01DX009 (ip), vehicle: saline with Tween-80): 114 % of control
T/C (dose: 1.0 mg/kg/injection, schedule: Q01DX001 (ip), vehicle: saline): 96 % of control and 105 % of control
T/C (dose: 1.0 mg/kg/injection, schedule: Q01DX005 (ip), vehicle: saline + alcohol): 100 % of control and 115 % of control
T/C (dose: 1.0 mg/kg/injection, schedule: Q01DX005 (ip), vehicle: saline with Tween-80): 99 % of control and 103 % of control
T/C (dose: 1.0 mg/kg/injection, schedule: Q01DX009 (ip), vehicle: saline with Tween-80): 118 % of control
T/C (dose: 2.0 mg/kg/injection, schedule: Q01DX001 (ip), vehicle: saline): 96 % of control and 105 % of control
T/C (dose: 2.0 mg/kg/injection, schedule: Q01DX005 (ip), vehicle: saline + alcohol): 103 % of control and 107 % of control and 119 % of control
T/C (dose: 2.0 mg/kg/injection, schedule: Q01DX005 (ip), vehicle: saline with Tween-80): 93 % of control and 116 % of control
T/C (dose: 2.0 mg/kg/injection, schedule: Q01DX009 (ip), vehicle: saline with Tween-80): 153 % of control
T/C (dose: 2.5 mg/kg/injection, schedule: Q01DX001 (ip), vehicle: saline with Tween-80): 109 % of control
T/C (dose: 4.0 mg/kg/injection, schedule: Q01DX001 (ip), vehicle: saline): 106 % of control and 111 % of control
T/C (dose: 4.0 mg/kg/injection, schedule: Q01DX005 (ip), vehicle: saline + alcohol): 170 % of control
T/C (dose: 4.0 mg/kg/injection, schedule: Q01DX009 (ip), vehicle: saline with Tween-80): 241 % of control
T/C (dose: 5.0 mg/kg/injection, schedule: Q01DX001 (ip), vehicle: alcohol): 113 % of control
T/C (dose: 5.0 mg/kg/injection, schedule: Q01DX001 (ip), vehicle: saline with Tween-80): 113 % of control
T/C (dose: 7.5 mg/kg/injection, schedule: Q01DX001 (ip), vehicle: saline + alcohol): 107 % of control
T/C (dose: 8.0 mg/kg/injection, schedule: Q01DX001 (ip), vehicle: saline): 108 % of control and 110 % of control
T/C (dose: 8.0 mg/kg/injection, schedule: Q01DX005 (ip), vehicle: saline + alcohol): 204 % of control and 218 % of control
T/C (dose: 8.0 mg/kg/injection, schedule: Q01DX005 (ip), vehicle: saline with Tween-80): 171 % of control and 240 % of control
T/C (dose: 8.0 mg/kg/injection, schedule: Q01DX009 (ip), vehicle: saline with Tween-80): 106 % of control
T/C (dose: 10.0 mg/kg/injection, schedule: Q01DX001 (ip), vehicle: saline with Tween-80): 99 % of control
T/C (dose: 10.0 mg/kg/injection, schedule: Q01DX005 (ip), vehicle: saline with Tween-80): 214 % of control
T/C (dose: 16.0 mg/kg/injection, schedule: Q01DX001 (ip), vehicle: saline): 150 % of control and 163 % of control
T/C (dose: 16.0 mg/kg/injection, schedule: Q01DX005 (ip), vehicle: saline + alcohol): 376 % of control
T/C (dose: 16.0 mg/kg/injection, schedule: Q01DX005 (ip), vehicle: saline with Tween-80): 105 % of control
T/C (dose: 20.0 mg/kg/injection, schedule: Q01DX001 (ip), vehicle: alcohol): 167 % of control
T/C (dose: 20.0 mg/kg/injection, schedule: Q01DX001 (ip), vehicle: saline with Tween-80): 117 % of control
T/C (dose: 24.0 mg/kg/injection, schedule: Q01DX001 (ip), vehicle: saline): 300 % of control
T/C (dose: 30.0 mg/kg/injection, schedule: Q01DX001 (ip), vehicle: saline + alcohol): 177 % of control
T/C (dose: 32.0 mg/kg/injection, schedule: Q01DX001 (ip), vehicle: saline): 196 % of control and 226 % of control
T/C (dose: 40.0 mg/kg/injection, schedule: Q01DX001 (ip), vehicle: alcohol): 215 % of control
T/C (dose: 40.0 mg/kg/injection, schedule: Q01DX001 (ip), vehicle: saline with Tween-80): 112 % of control
T/C (dose: 60.0 mg/kg/injection, schedule: Q01DX001 (ip), vehicle: saline + alcohol): 359 % of control
T/C (dose: 64.0 mg/kg/injection, schedule: Q01DX001 (ip), vehicle: saline): 95 % of control

CSCS(=O)C[C@H](CO)NC(=O)/C=C/c1c(C)[nH]c(=O)[nH]c1=O (some centres not stated)
T/C (dose: 0.06 mg/kg/injection, schedule: Q01DX005 (ip), vehicle: Klucel (hydroxypropylcellulose) (HPC)): 105 % of control
T/C (dose: 0.12 mg/kg/injection, schedule: Q01DX001 (ip), vehicle: Klucel (hydroxypropylcellulose) (HPC)): 102 % of control and 104 % of control and 107 % of control
T/C (dose: 0.12 mg/kg/injection, schedule: Q01DX005 (ip), vehicle: Klucel (hydroxypropylcellulose) (HPC)): 100 % of control
T/C (dose: 0.25 mg/kg/injection, schedule: Q01DX001 (ip), vehicle: Klucel (hydroxypropylcellulose) (HPC)): 101 % of control and 102 % of control and 112 % of control
T/C (dose: 0.25 mg/kg/injection, schedule: Q01DX005 (ip), vehicle: Klucel (hydroxypropylcellulose) (HPC)): 105 % of control
T/C (dose: 0.5 mg/kg/injection, schedule: Q01DX001 (ip), vehicle: Klucel (hydroxypropylcellulose) (HPC)): 97 % of control and 103 % of control and 109 % of control
T/C (dose: 0.5 mg/kg/injection, schedule: Q01DX005 (ip), vehicle: Klucel (hydroxypropylcellulose) (HPC)): 102 % of control
T/C (dose: 1.0 mg/kg/injection, schedule: Q01DX001 (ip), vehicle: Klucel (hydroxypropylcellulose) (HPC)): 96 % of control and 97 % of control and 102 % of control

CCCS(=O)CC1NC(=O)NC1=O (configuration not stated)
T/C (dose: 9.38 mg/kg/injection, schedule: Q01DX005 (ip), vehicle: Klucel (hydroxypropylcellulose) (HPC)): 101 % of control
T/C (dose: 18.75 mg/kg/injection, schedule: Q01DX005 (ip), vehicle: Klucel (hydroxypropylcellulose) (HPC)): 98 % of control
T/C (dose: 37.5 mg/kg/injection, schedule: Q01DX005 (ip), vehicle: Klucel (hydroxypropylcellulose) (HPC)): 109 % of control
T/C (dose: 75.0 mg/kg/injection, schedule: Q01DX005 (ip), vehicle: Klucel (hydroxypropylcellulose) (HPC)): 106 % of control
T/C (dose: 150.0 mg/kg/injection, schedule: Q01DX005 (ip), vehicle: Klucel (hydroxypropylcellulose) (HPC)): 98 % of control

O=C(NCCCl)NCCCl
T/C (dose: 6.25 mg/kg/injection, schedule: Q01DX005 (ip), vehicle: Klucel (hydroxypropylcellulose) (HPC)): 102 % of control and 105 % of control
T/C (dose: 12.5 mg/kg/injection, schedule: Q01DX005 (ip), vehicle: Klucel (hydroxypropylcellulose) (HPC)): 102 % of control and 104 % of control
T/C [1]: 93 % of control and 99 % of control
T/C [2]: 92 % of control and 103 % of control
T/C [3]: 98 % of control and 107 % of control
T/C (dose: 200.0 mg/kg/injection, schedule: Q01DX005 (ip), vehicle: Klucel (hydroxypropylcellulose) (HPC)): 96 % of control and 107 % of control
T/C (dose: 400.0 mg/kg/injection, schedule: Q01DX005 (ip), vehicle: Klucel (hydroxypropylcellulose) (HPC)): 108 % of control and 87 % of control

COC12C(COC(N)=O)C3=C(C(=O)C(C)=C(N)C3=O)N1CC1C2N1C (configuration not stated)
T/C (dose: 2.0 mg/kg/injection, schedule: Q01DX005 (ip), vehicle: Klucel (hydroxypropylcellulose) (HPC)): 105 % of control and 110 % of control
T/C (dose: 4.0 mg/kg/injection, schedule: Q01DX005 (ip), vehicle: Klucel (hydroxypropylcellulose) (HPC)): 112 % of control and 114 % of control

CCN(CC)c1ccc2cc3ccc(=[N+](CC)CC)cc-3oc2c1
T/C (dose: 2.0 mg/kg/injection, schedule: Q01DX005 (ip), vehicle: saline): 110 % of control
T/C (dose: 4.0 mg/kg/injection, schedule: Q01DX005 (ip), vehicle: saline): 90 % of control
T/C (dose: 8.0 mg/kg/injection, schedule: Q01DX005 (ip), vehicle: saline): 93 % of control

CN=S(=O)(OCCCCCOS(=O)(=NC)c1ccccc1)c1ccccc1 (configuration not stated)
T/C (dose: 6.25 mg/kg/injection, schedule: Q01DX005 (ip), vehicle: saline with Tween-80): 110 % of control
T/C (dose: 12.5 mg/kg/injection, schedule: Q01DX005 (ip), vehicle: saline with Tween-80): 100 % of control
T/C (dose: 25.0 mg/kg/injection, schedule: Q01DX005 (ip), vehicle: saline with Tween-80): 95 % of control and 106 % of control
T/C (dose: 50.0 mg/kg/injection, schedule: Q01DX005 (ip), vehicle: saline with Tween-80): 111 % of control and 112 % of control
T/C (dose: 100.0 mg/kg/injection, schedule: Q01DX005 (ip), vehicle: saline with Tween-80): 101 % of control and 123 % of control

COc1nc(C(Cl)(Cl)Cl)c(Cl)c(OC)c1Cl
T/C [1]: 94 % of control
T/C [2]: 107 % of control
T/C [3]: 114 % of control

COc1cc([C@@H]2c3cc4c(cc3[C@@H](OC3OC5COC(C)OC5C(O)C3O)[C@H]3COC(=O)[C@H]23)OCO4)cc(OC)c1O (some centres not stated)
T/C (dose: 0.5 mg/kg/injection, schedule: Q01DX005 (ip), vehicle: suspension in saline): 101 % of control
T/C (dose: 1.0 mg/kg/injection, schedule: Q01DX005 (ip), vehicle: suspension in saline): 100 % of control
T/C (dose: 2.0 mg/kg/injection, schedule: Q01DX005 (ip), vehicle: suspension in saline): 110 % of control and 114 % of control
T/C (dose: 4.0 mg/kg/injection, schedule: Q01DX005 (ip), vehicle: suspension in saline): 112 % of control and 120 % of control
T/C (dose: 16.0 mg/kg/injection, schedule: Q01DX005 (ip), vehicle: suspension in saline): 102 % of control
